# Measured values published in article PMC12040169 (PLOS Biology, 2025).
# Assay: in vitro
# Details: human, hela cells, % viability
row,SMILES,"viability at 28.5 h, 10 µM [%]"
1,Cc1ccc(CNC(=O)CSc2nnc(-c3ccncc3)n2-c2ccccc2)cc1 [CBK266654],102
2,Fc1ccc(-c2cn(-c3ccc4c(c3)CCO4)nn2)cc1 [CBK113132],97
3,CCN(CC(=O)NCc1ccc(F)cc1)S(=O)(=O)c1ccc(Cl)s1 [CBK305837],88.2
4,O=C(c1cccnc1)C1CCN(C(=O)Cc2ccccc2F)CC1 [CBK283814],87.5
5,CCCCNC(=S)N1CC[C@@H]2CN(C)C[C@]2(c2ccc(OC)c(OC)c2)C1 [CBK075101T],100
6,CN(Cc1ccccc1)Cc1nc2c([nH]1)c(=O)[nH]c(=O)n2C [CBK269442],106
7,O=C(O)c1ccc(S(=O)(=O)c2ccc(O)cc2)cc1 [CBK261411],95.2
8,Cc1nc(C)c(C(=O)N2CCCC(C(=O)c3ccc(F)cc3)C2)s1 (stereo not drawn) [CBK305296],104
9,O=C(Cc1ccc(-c2ccccc2)cc1)N1CCC2(CC1)Nc1ccccc1S(=O)(=O)N2 [CBK286189],79.2
10,CCOP(=O)(O)c1c([N+](=O)[O-])cc(C(F)(F)F)cc1[N+](=O)[O-] [CBK261106G],103
11,Cc1noc(C)c1CC(=O)NC(C)CCc1ccc(F)cc1 (stereo not drawn) [CBK281511],89.8
12,CCC(=O)N[C@H]1CC[C@]2(CC1)CNC(=O)c1ccccc1O2 [CBK281681],106
13,CC(C)CC(C(=O)Nc1ccc(C2CCCC2)cc1)N1CCN(C)CC1 (stereo not drawn) [CBK024386C],87
14,C/C(=N\NC(=N)N)C(F)(F)F [CBK023019G],90.1
15,O=C(NC1CCCCC1)c1ccc(-n2ccnc2)c(-n2cccc2)c1 [CBK285365],107
16,O=[N+]([O-])c1cccc(-c2cc(NCCc3ccccn3)ncn2)c1 [CBK091087],96.7
17,COc1ccc(CN2CCCC(c3nc(C)n4ccccc34)C2)cc1 (stereo not drawn) [CBK282984],94.6
18,CN(C)c1cccc(Nc2cc(-c3ccc(CCC(=O)O)cc3)ncn2)c1 [CBK091010],93.1
19,Cc1cnc2[nH]c(C(C)C)c(CN3CCCOCC3)c2c1 [CBK284742],90.7
20,O=C(Nc1cccc(C(F)(F)F)c1)Nc1cc(N2CCNCC2)c2occc2c1 [CBK061746C],91.4
21,O=C(NCC1(c2ccccc2)CCCC1)c1ccc(=O)n(CC(=O)N2CCCCC2)c1 [CBK286082],93.5

row,SMILES,"viability at 28.5 h, 10 µM [%]"
1,COc1ccccc1NC(=O)c1sc2nc(N3CCOCC3)c3c(c2c1N)CCCC3 [CBK269247],103
2,COc1cc(C(c2nnnn2C2CCCCC2)N2CCN(C)CC2)cc(OC)c1OC (stereo not drawn) [CBK142338C],98.3
3,Oc1cccc(OCCOc2cc(C(F)(F)F)ccn2)c1 [CBK115788],84.8
4,Cc1cc(O)c(C(=O)Nc2cccc(Cl)c2)c(=O)n1Cc1ccco1 [CBK291143],91.2
5,O=C(Cc1ccccc1Oc1ccccc1)Nc1cnc(-c2ccc(F)cc2)c(-c2ccco2)n1 [CBK037194],92.6
6,Cc1cc(N)n(-c2nc3c(cnn3-c3ccc(C)c(C)c3)c(=O)[nH]2)n1 [CBK287646],97.8
7,CCCc1nc(NC(CCO)c2ccc(C)cc2)c2cnn(C)c2n1 (stereo not drawn) [CBK307309],85.3
8,COc1cc(F)ccc1-c1ccc2ccc(NC(=O)C(C)C)nc2n1 [CBK073666],87.1
9,CN(C)CCN(C)C1CCN(Cc2ccccc2)CC1 [CBK261930],102
10,CCCCC12CN3CC(C)(CN(C1)C31C(=O)Nc3ccc(Br)cc31)C2=O (stereo not drawn) [CBK267348],96
11,OCCN1CC2(CCN(CC3CCCO3)CC2)c2ccccc21 (stereo not drawn) [CBK143959],90.8
12,CCCCCc1ccc(S(=O)(=O)N2CCN(C(=O)C3CCCO3)CC2)cc1 (stereo not drawn) [CBK044329],101
13,O=C1NC2=C(C(=O)N(CCN3CCCC3)C2)C(c2ccccc2)N1 (stereo not drawn) [CBK283493],103
14,O=C1CC(c2ccc(S(=O)(=O)NCc3ccccc3)cc2)CN1 (stereo not drawn) [CBK270155],87.5
15,O=C(CSCc1ccc([N+](=O)[O-])cc1)Nc1ccc(O)cc1C(=O)O [CBK131710],89.4
16,O=C(NC1CCCCCC1)c1ccc(COCC(F)(F)C(F)F)cc1 [CBK059012],114
17,N#C/C(=C\c1ccc(N2CCN(c3ccc(F)cc3)CC2)c([N+](=O)[O-])c1)c1nn(-c2ccccc2)c(N)c1C#N [CBK267927],95.7
18,Cc1cc(C)n2nc(CC(=O)NCCCn3cc(Cl)cn3)nc2n1 [CBK307276],84.3
19,COC(=O)c1cccc2c1CCCN2Cc1nnc(C2CCC2)o1 [CBK304072],105
20,CCNC(=O)Nc1c[nH]nc1C1CCCN(c2cccc(F)c2C#N)C1 (stereo not drawn) [CBK306406],86.5
21,Cc1ccc(OCC(O)CN2CCN(c3nc(-c4ccccc4)ns3)CC2)c([N+](=O)[O-])c1 (stereo not drawn) [CBK074696],95.3

row,SMILES,"viability at 28.5 h, 10 µM [%]"
1,Cc1cccc(OCc2nnc(SCC(=O)NC3CCCCC3)o2)c1 [CBK264652],96.3
2,N#Cc1c(Oc2cccc(Cl)c2Cl)cccc1C(F)(F)F [CBK002592],91.1
3,CN(C)C(=O)n1cc(Cl)c(-c2ccccc2)n1 [CBK004985],97
4,COc1cc(NC(=O)c2ccc3c(c2)C(=O)N(c2ccccc2OC)C3=O)c(C(=O)O)cc1OC [CBK262787],95.1
5,COc1ccc(-c2nc(Nc3cccc(C(F)(F)F)c3)sc2CC(=O)O)cc1OC [CBK131693],97.9
6,Cc1ccc(C(=O)c2coc3ccc(O)cc23)cc1 [CBK115557],89.1
7,COc1ccc(CCC(=O)N2CCC(c3cccc(Cc4cccc(F)c4)n3)CC2)cc1 [CBK286212],105
8,CN1CCN(CCCCC2(C)SC(NC3CCCCCC3)=NC2=O)CC1 (stereo not drawn) [CBK113259],93.3
9,Cc1cc(N2CCOCC2)nc2ccc(NC(=O)c3ccncc3)cc12 [CBK288587],99.3
10,CC(=O)Nc1ccc(S(=O)(=O)N2CCC(N3CCOCC3)CC2)cc1 [CBK264653G],116
11,OCCN(CCO)c1nccnc1-c1ccccc1F [CBK036610],106
12,Cc1ccc(OCCOCCN(C)C)c(Cl)c1 [CBK265493G],111
13,COc1ccc(C(=O)Nc2nc(-c3ccc4c(c3)OCCO4)cs2)cc1OC [CBK287588],92.5
14,CCN(CC)C(=O)C1C2CCC3(CC(=O)c4ccccc4O3)C21 (stereo not drawn) [CBK284923],105
15,Cc1ccc(C)c(C2C(C(=O)c3ccccc3Cl)=C(O)C(=O)N2c2ccc(CC(=O)O)cc2)c1 (stereo not drawn) [CBK297723],90.7
16,COc1ccc(-c2nnc([C@H]3CCN(C(=O)C4CC4)C3)o2)cc1 [CBK289409],89.6
17,COC(=O)COc1nccnc1-c1ccc(OC(F)(F)F)cc1 [CBK106849],90.4
18,O=C(CSc1ccc2ccccc2n1)Nc1ccnc2ccccc12 [CBK176848],78.1
19,COc1cc(/C=N/Nc2nonc2N)cc(OC)c1OC [CBK025758],73.2
20,Cc1nc(NS(=O)(=O)c2cc(Cl)sc2Cl)sc1C(=O)N1CCN(C)CC1 [CBK045818],106

# Same assay, conditions: human, hela cells, % viability, bulk resorufin, single well
row,SMILES,"viability at 28.5 h, 10 µM [%]"
1,O=C(O)CCn1cc(C=C2C(=O)NC(=S)NC2=O)c(-c2cccc([N+](=O)[O-])c2)n1 [CBK265309],116
